Experimental data published in patent US20240252488A1 (KOREA RESEARCH INSTITUTE OF CHEMICAL TECHNOLOGY, priority 2020, published 2024).

What was measured:
[1] = tested on: FADD−/− Jurkat cells; test: Necroptosis inhibition assay, TNF-α-induced necroptosis (CellTiter-Glo 2.0); format: cell-based, human; details: TNF-α 15 ng/mL; for Necroptosis inhibition assay (Rescue %) 1 μM: compound 1 μM; for Necroptosis inhibition assay (Rescue %) 10 μM: compound 10 μM
Summary of the method: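 Tested at three fixed concentrations (0.1, 1, 10 μM final) with a 30-minute room-temperature preincubation ahead of 15 ng/mL TNF-α challenge lasting 20 to 24 hours. Inhibition rate and cytotoxicity derive from ATP luminescence.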

[2] = molecular target: T1, MLKL (Homo sapiens, UniProt Q8NB16); test: MLKL degradation assay in HepG2 cell line (western blot); format: cell-based; set-up: endogenous in cells; host or cells: HepG2 or HaCaT; details: cell line not given; for Degradation assay (Degradation %) 1 μM: compound 1 μM; for Degradation assay (Degradation %) 10 μM: compound 10 μM
T1 sequence (Q8NB16 1-471): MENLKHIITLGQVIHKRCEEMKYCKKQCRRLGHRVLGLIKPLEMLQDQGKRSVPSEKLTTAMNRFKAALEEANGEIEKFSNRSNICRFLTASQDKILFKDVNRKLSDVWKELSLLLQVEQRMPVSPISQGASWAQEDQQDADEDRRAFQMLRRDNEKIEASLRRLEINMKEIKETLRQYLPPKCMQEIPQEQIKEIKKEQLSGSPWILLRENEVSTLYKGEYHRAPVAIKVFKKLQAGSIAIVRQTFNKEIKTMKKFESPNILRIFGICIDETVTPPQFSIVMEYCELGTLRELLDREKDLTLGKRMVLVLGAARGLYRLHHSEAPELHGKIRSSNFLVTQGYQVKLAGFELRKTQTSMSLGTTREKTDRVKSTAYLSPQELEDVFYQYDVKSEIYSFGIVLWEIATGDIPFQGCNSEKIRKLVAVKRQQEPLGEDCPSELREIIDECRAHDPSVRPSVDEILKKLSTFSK
Summary of the method: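 Degradation is judged from MLKL band intensity on immunoblots of HepG2 lysates taken after 20-24 hours of compound at final 1 or 10 μM.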

[3] = molecular target: T1, MLKL; test: Measurement of binding affinity with MLKL receptor (competitive binding assay, Kd); set-up: made in house; host or cells: HEK 293 cell line (T7 phage in E. coli BL21-derived host is also described)
Summary of the method: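 qPCR of MLKL eluted from liganded beads served as the read-out, from which Kd was derived. The protein was made in HEK 293 cells with a DNA tag, and test compounds competed with the bead-bound ligand at 0.9% final DMSO.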

## Nc1ncc(-c2cnn(C3CCN(CCCCCCCCCCNC(=O)CNc4ccc5nnn(C6CCC(=O)NC6=O)c(=O)c5c4)CC3)c2)nc1C(=O)O[C@@H](C(=O)Nc1ccc(F)cc1)c1ccccc1 (stereo partly drawn) [TDH-173, (R)-2-((4-fluorophenyl)amino)-2-oxo-1-phenylethyl 3-amino-6-(1-(1-(10-(2-((3-(2,6-dioxopiperidin-3-yl)-4-oxo-3,4-dihydrobenzo[d][1,2,3]triazin-6-yl)amino)acetamido)decyl)piperidin-4-yl)-1H-pyrazol-4-yl)pyrazine-2-carboxylate]
[1]
  Necroptosis inhibition assay (Rescue %) 1 μM: 47.27%
  Necroptosis inhibition assay (Rescue %) 10 μM: 35.55%
[2]
  Degradation assay (Degradation %) 1 μM: 61.08%
  Degradation assay (Degradation %) 10 μM: 75.11%
[3]
  Kd: 17 nM

## Nc1ncc(-c2cnn(C3CCN(CCOCCOCCNC(=O)CNc4ccc5nnn(C6CCC(=O)NC6=O)c(=O)c5c4)CC3)c2)nc1C(=O)O[C@@H](C(=O)Nc1ccc(F)cc1)c1ccccc1 (stereo partly drawn) [TDH-174, (R)-2-((4-fluorophenyl)amino)-2-oxo-1-phenylethyl 3-amino-6-(1-(1-(2-(2-(2-(2-((3-(2,6-dioxopiperidin-3-yl)-4-oxo-3,4-dihydrobenzo[d][1,2,3]triazin-6-yl)amino)acetamido)ethoxy)ethoxy)ethyl)piperidin-4-yl)-1H-pyrazol-4-yl)pyrazine-2-carboxylate]
[1]
  Necroptosis inhibition assay (Rescue %) 1 μM: 16.47%
  Necroptosis inhibition assay (Rescue %) 10 μM: 42.59%
[2]
  Degradation assay (Degradation %) 1 μM: 49.38%
  Degradation assay (Degradation %) 10 μM: 52.62%
[3]
  Kd: 2.2 nM

## Nc1ncc(-c2cnn(C3CCN(CCOCCOCCOCCNC(=O)CNc4ccc5nnn(C6CCC(=O)NC6=O)c(=O)c5c4)CC3)c2)nc1C(=O)O[C@@H](C(=O)Nc1ccc(F)cc1)c1ccccc1 (stereo partly drawn) [TDH-175, (R)-2-((4-fluorophenyl)amino)-2-oxo-1-phenylethyl 3-amino-6-(1-(1-(1-((3-(2,6-dioxopiperidin-3-yl)-4-oxo-3,4-dihydrobenzo[d][1,2,3]triazin-6-yl)amino)-2-oxo-6,9,12-trioxa-3-azatetradecan-14-yl)piperidin-4-yl)-1H-pyrazol-4-yl)pyrazine-2-carboxylate]
[1]
  Necroptosis inhibition assay (Rescue %) 1 μM: 18.82%
  Necroptosis inhibition assay (Rescue %) 10 μM: 35.89%
[2]
  Degradation assay (Degradation %) 1 μM: 48.93%
  Degradation assay (Degradation %) 10 μM: 43.56%
[3]
  Kd: 7.3 nM

## Nc1ncc(-c2cnn(C3CCN(CCCCCCCCCCNC(=O)COc4ccc5nnn(C6CCC(=O)NC6=O)c(=O)c5c4)CC3)c2)nc1C(=O)O[C@@H](C(=O)Nc1ccc(F)cc1)c1ccccc1 (stereo partly drawn) [TDH-176, (R)-2-((4-fluorophenyl)amino)-2-oxo-1-phenylethyl 3-amino-6-(1-(1-(10-(2-((3-(2,6-dioxopiperidin-3-yl)-4-oxo-3,4-dihydrobenzo[d][1,2,3]triazin-6-yl)oxy)acetamido)decyl)piperidin-4-yl)-1H-pyrazol-4-yl)pyrazine-2-carboxylate]
[1]
  Necroptosis inhibition assay (Rescue %) 1 μM: 44.28%
  Necroptosis inhibition assay (Rescue %) 10 μM: 35.42%
[2]
  Degradation assay (Degradation %) 1 μM: 34.07%
  Degradation assay (Degradation %) 10 μM: 23.76%
[3]
  Kd: 22 nM

## Nc1ncc(-c2cnn(C3CCN(CCCCCCCCCCNC(=O)C4CCN(c5ccc6nnn(C7CCC(=O)NC7=O)c(=O)c6c5)CC4)CC3)c2)nc1C(=O)O[C@@H](C(=O)Nc1ccc(F)cc1)c1ccccc1 (stereo partly drawn) [TDH-177, (R)-2-((4-fluorophenyl)amino)-2-oxo-1-phenylethyl 3-amino-6-(1-(1-(10-(1-(3-(2,6-dioxopiperidin-3-yl)-4-oxo-3,4-dihydrobenzo[d][1,2,3]triazin-6-yl)piperidine-4-carboxamido)decyl)piperidin-4-yl)-1H-pyrazol-4-yl)pyrazine-2-carboxylate]
[1]
  Necroptosis inhibition assay (Rescue %) 1 μM: 41.3%
  Necroptosis inhibition assay (Rescue %) 10 μM: 48.7%
[2]
  Degradation assay (Degradation %) 1 μM: 36.03%
  Degradation assay (Degradation %) 10 μM: 75.8%
[3]
  Kd: 84 nM
